{
  "source": "patent US20080145876A1",
  "about": "“POLY(ETHYLENE GLYCOL) ANTI-BODY DETECTION ASSAYS AND KITS FOR PERFORMING THEREOF” (University of Southern California, priority 2006, published 2008)",
  "key": {"anti-PEG": {"tested_on": "anti-PEG", "assay": "Inhibition of PEG-RBC agglutination by polymers/small ethers added to anti-PEG positive sera (anti-PEG epitope study, tube test)", "format": "binding, human", "details": "for Effect on PEG-RBC agglutination (inhibition): three 4+ anti-PEG positive sera, 1% (w/v) final concentration; for Agglutination Score of PEG-RBCs: compound added at 1% w/v, PBS control 4+", "description": "One drop of RBCs (PEG-coated or control (uncoated) RBCs) at 5% hct were added to 2 drops of plasma. Samples were incubated at room temperature for 15 minutes and then centrifuged at 1000×g for 1 minute. Agglutination of PEG-coated or uncoated (control) RBCs by each plasma sample was scored according to the 0-4+ scale.\nThe polymer and small ether solutions were added to anti-PEG positive sera at a 1:1 (v/v) ratio giving a final polymer/small ether concentration of 1% (w/v) and incubated for 30 minutes at room temperature. […] Inhibition of agglutination by the smallest ether molecule tested determined the anti-PEG epitope."}, "[1]": {"assay": "ASNase activity in sera of PEG-ASNase-treated ALL patients (microplate technique) versus anti-PEG status", "format": "in vivo, human", "description": "Stored serum samples were collected from 28 pediatric acute lymphoblastic leukemia (ALL) patients who received the chemotherapy agent, PEG-conjugated asparaginase (PEG-ASNase). Sera were assayed for ASNase activity using a microplate technique. Testing for anti-PEG was performed by serology as described in Example 1 and by flow cytometry as described in Example 3."}},
  "data": [
    {"molecule": "CCOCCOCCOCC", "note": "[Diethylene Glycol Diethyl Ether]", "values": [
      {"measurement": "Effect on PEG-RBC agglutination (inhibition)", "setting": "anti-PEG", "result": "reduced PEG-RBC agglutination (4+ to 2+)"}
    ]},
    {"molecule": "OCCOCCO", "note": "[Diethylene Glycol]", "values": [
      {"measurement": "Effect on PEG-RBC agglutination (inhibition)", "setting": "anti-PEG", "result": "no effect"}
    ]},
    {"molecule": "OCCO", "note": "[Ethlyene Glycol]", "values": [
      {"measurement": "Effect on PEG-RBC agglutination (inhibition)", "setting": "anti-PEG", "result": "no effect"}
    ]},
    {"molecule": "COCCOCCOCCOCCOC", "note": "[Tetraethylene Glycol Dimethyl Ether]", "values": [
      {"measurement": "Agglutination Score of PEG-RBCs", "setting": "anti-PEG; Anti-PEG Positive Donor A", "result": "0^"},
      {"measurement": "Agglutination Score of PEG-RBCs", "setting": "anti-PEG; Anti-PEG Positive Donor B", "result": "0^"},
      {"measurement": "Agglutination Score of PEG-RBCs", "setting": "anti-PEG; Anti-PEG Positive Donor C", "result": "0^"},
      {"measurement": "Effect on PEG-RBC agglutination (inhibition)", "setting": "anti-PEG", "result": "Complete inhibition of agglutination"}
    ]},
    {"molecule": "COCCOCCOCCOC", "note": "[Triethylene Glycol Dimethyl Ether]", "values": [
      {"measurement": "Agglutination Score of PEG-RBCs", "setting": "anti-PEG; Anti-PEG Positive Donor A", "result": "0^"},
      {"measurement": "Agglutination Score of PEG-RBCs", "setting": "anti-PEG; Anti-PEG Positive Donor B", "result": "0^"},
      {"measurement": "Agglutination Score of PEG-RBCs", "setting": "anti-PEG; Anti-PEG Positive Donor C", "result": "0^"},
      {"measurement": "Effect on PEG-RBC agglutination (inhibition)", "setting": "anti-PEG", "result": "Complete inhibition of agglutination"}
    ]},
    {"molecule": "OCCOCCOCCO", "note": "[Triethylene Glycol]", "values": [
      {"measurement": "Effect on PEG-RBC agglutination (inhibition)", "setting": "anti-PEG", "result": "no effect"}
    ]},
    {"molecule": "PEG-asparaginase: chemotherapy agent, PEG-conjugated asparaginase (PEG-ASNase) (conjugate, UniProt P00805 23-348, looked up, PEG conjugate) L-asparaginase 2: LPNITILATGGTIAGGGDSATKSNYTVGKVGVENLVNAVPQLKDIANVKGEQVVNIGSQDMNDNVWLTLAKKINTDCDKTDGFVITHGTDTMEETAYFLDLTVKCDKPVVMVGAMRPSTSMSADGPFNLYNAVVTAADKASANRGVLVVMNDTVLDGRDVTKTNTTDVATFKSVNYGPLGYIHNGKIDYQRTPARKHTSDTPFDVSKLNELPKVGIVYNYANASDLPAKALVDAGYDGIVSAGVGNGNLYKSVFDTLATAAKTGTAVVRSSRVPTGATTQDAEVDDAKYGFVASGTLNPQKARVLLQLALTQTKDPQQIQQIFNQY", "values": [
      {"measurement": "mean ASNase activity", "setting": "[1]; IgM anti-PEG positive patients by flow cytometry (n=13)", "result": 12, "unit": "U/L"},
      {"measurement": "ASNase activity", "setting": "[1]; all anti-PEG positive patient sera, serology or flow cytometry", "result": "low or undetectable"},
      {"measurement": "mean ASNase activity", "setting": "[1]; anti-PEG negative patients by flow cytometry (n=15)", "result": 438, "unit": "U/L"},
      {"measurement": "mean ASNase activity", "setting": "[1]; anti-PEG negative patients by serology (n=19)", "result": 353, "unit": "U/L"},
      {"measurement": "ASNase activity", "setting": "[1]; anti-PEG positive patients by serology (n=9)", "result": "undetectable"},
      {"measurement": "ASNase activity", "setting": "[1]; one anomalous sample, weakly positive for anti-PEG IgM and positive for anti-ASNase", "result": 123, "unit": "U/L"}
    ]}
  ]
}
